The record followed here is US20100069443A1, “COMPOUND WITH BENZAMIDE SKELETON HAVING CYCLOOXYGENASE-1 (COX-1)-SELECTIVE INHIBITORY ACTIVITY” (National University Corporation Okayama University, priority 2006, published 2010).

In data set [1] the test system is carrageenin-induced edema in footpads of hind paws. Put plainly: Carrageenin edema test (antiinflammatory testing). The settings on record: 30 mg/kg orally; 3 hours after administration of 1% carrageenin. It is filed as in vivo, rat. Here is the method: Antiinflammatory testing was carried out via a rat-based carrageenin edema test. Compounds were orally administered in amounts of 30 mg/kg to groups each consisting of 5 to 8 […], and an edema-inducing substance (a 1% carrageenin solution) was administered hypodermically to footpads of hind paws 1 hour later (0.1 ml/mouse). Edema thickness in the footpads of hind paws was measured 1, 2, and 3 hours thereafter.
A general note: The carrageenan paw model is a standard test of acute inflammation.

Data set [2] concerns gastric ulcer. As to the kind of experiment: Gastric ulcer formation. Type of data set: in vivo. The settings on record: 30 mg/kg orally, mice, 5 hours later. The method, then:
Compound 1 was orally administered in amounts of 30 mg/kg to groups each consisting of 3 to 5 mice, mice were sacrificed with the use of ether 5 hours later, and the stomachs were extracted. The extracted stomachs were opened, each entire stomach was photographed using a stereoscopic microscope, and the lengths of the gastric ulcers were determined.

The test system of data set [3] is acetic acid-induced writhing responses. As to the kind of experiment: Acetic acid writhing test (analgesic testing). It is filed as in vivo. The conditions noted are these: mice; for Number of writhing responses: counted for 10 minutes, average; for Analgesic effect, suppression of the number of writhing responses (in words): oral administration. Here is the method: Analgesic testing was carried out via common mice-based acetic acid writhing test. Compounds were administered orally in amounts of 30 mg/kg to groups each consisting of 10 or 11 mice, and a substance that applies pain stimuli, i.e., a 0.7% acetic acid solution, was intraperitoneally administered 30 minutes thereafter (0.1 ml/10 g). The counting of mice-specific writhing responses was initiated 10 minutes after the administration of the acetic acid solution, and the counting was continued for 10 minutes. This test utilizes the fact that a distinct symptom of agony, that is a writhing response, occurs upon administration of a stimulatory substance, such as an acetic acid solution, to a mouse. […] When compound 1 was administered in amounts of 30 mg/kg, however, the number of writhing responses was 5 on average. When compound 1 was administered in amounts of 10 mg/kg, the number of writhing responses was 10 on average. When compound 14 was administered in amounts of 30 mg/kg, the number of writhing responses was 6 on average.
Background: Writhing tests count abdominal constrictions after an irritant is injected.

For data set [4], the target named is T1, cyclooxygenase 2 (COX-2) (Ovis aries, UniProt P79208).
T1 construct: purchased Cayman 760111
T1 sequence (P79208 17-603): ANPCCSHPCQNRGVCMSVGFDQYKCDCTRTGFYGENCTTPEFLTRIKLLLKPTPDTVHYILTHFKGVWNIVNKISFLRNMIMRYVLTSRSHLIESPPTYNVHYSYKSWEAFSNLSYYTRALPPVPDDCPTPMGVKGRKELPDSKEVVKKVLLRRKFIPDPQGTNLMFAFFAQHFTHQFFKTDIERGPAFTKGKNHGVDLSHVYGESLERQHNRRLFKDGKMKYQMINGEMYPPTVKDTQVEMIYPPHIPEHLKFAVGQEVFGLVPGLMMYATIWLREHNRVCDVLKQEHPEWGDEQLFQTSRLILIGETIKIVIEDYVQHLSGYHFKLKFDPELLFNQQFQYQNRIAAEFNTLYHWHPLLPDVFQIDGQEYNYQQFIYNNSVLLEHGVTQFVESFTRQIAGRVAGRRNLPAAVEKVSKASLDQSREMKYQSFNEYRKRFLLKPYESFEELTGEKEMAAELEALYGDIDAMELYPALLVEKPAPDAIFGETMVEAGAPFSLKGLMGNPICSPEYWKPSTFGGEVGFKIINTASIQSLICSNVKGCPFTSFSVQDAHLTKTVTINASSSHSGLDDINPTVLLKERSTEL
As to the kind of experiment: Cayman Cyclooxygenase Inhibitor Screening Assay Kit (760111), COX-2. It is filed as biochemical. The conditions noted are these: for inhibition at 100 µM: read-out: Inhibitory activity of 100 μM compound (%) COX-2.

In data set [5] the target is T2, cyclooxygenase-1 (COX-1) (Ovis aries, UniProt P05979).
T2 construct: purchased Cayman 760111
T2 sequence (P05979 25-600): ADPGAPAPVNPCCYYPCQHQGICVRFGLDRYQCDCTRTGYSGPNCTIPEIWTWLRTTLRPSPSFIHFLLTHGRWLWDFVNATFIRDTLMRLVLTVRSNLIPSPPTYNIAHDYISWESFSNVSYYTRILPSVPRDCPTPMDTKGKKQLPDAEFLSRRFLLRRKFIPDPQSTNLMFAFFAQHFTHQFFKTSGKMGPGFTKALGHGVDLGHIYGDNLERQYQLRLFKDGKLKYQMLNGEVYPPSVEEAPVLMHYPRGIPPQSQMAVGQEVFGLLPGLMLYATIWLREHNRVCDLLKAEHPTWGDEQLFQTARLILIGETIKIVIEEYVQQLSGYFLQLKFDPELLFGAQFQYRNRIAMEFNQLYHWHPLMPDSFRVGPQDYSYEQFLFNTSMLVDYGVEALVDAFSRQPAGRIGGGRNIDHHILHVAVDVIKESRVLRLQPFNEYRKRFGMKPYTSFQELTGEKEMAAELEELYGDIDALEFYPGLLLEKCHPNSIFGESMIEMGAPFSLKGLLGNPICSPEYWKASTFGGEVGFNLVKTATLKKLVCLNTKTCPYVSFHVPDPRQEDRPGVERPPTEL
As to the kind of experiment: Cayman Cyclooxygenase Inhibitor Screening Assay Kit (760111), COX-1. The conditions noted are these: for inhibition at 100 µM: read-out: Inhibitory activity of 100 μM compound (%) COX-1. Type of data set: biochemical.

Setting [6] is: 10 mg/kg orally, 0.7% acetic acid i.p.
The mark [7] stands for this setting: 30 mg/kg orally, 0.7% acetic acid i.p. 30 minutes later.

The structures appear in SMILES notation. Where two headings read alike, the source gives them in different places.

A word on the IC50: it is the concentration at which inhibition is half-maximal. Lower therefore signals higher potency.

Turning to `CC(=O)Oc1ccccc1C(=O)O` [Aspirin, aspirin, reference compound], in data set [1], the “Inhibitory activity against edema (%)” value was found to be 16%. Also, in data set [2], the “Gastric ulcer formation (in words)” value is on record as “significant gastric ulcers” and the “Total length of gastric ulcer (mm)” value stood at 1.61 mm. Further, the “Number of writhing responses” value in data set [3] (setting [6]) turned out to be 17. The “Number of writhing responses” value in data set [3] (setting [7]) is 15.

Consider `Nc1ccc(NC(=O)c2ccc(C(F)(F)F)cc2)nc1` [Compound 1], for which, in data set [1], the “Inhibitory activity against edema (%)” value came out at 31%. For the same compound, in data set [2], the “Gastric ulcer formation (in words)” value is recorded as “not observed” and the “Total length of gastric ulcer (mm)” value is on record as 0.09 mm. In addition, the Death of mice entry (1 g/kg intraperitoneally, 3 mice, observed for 10 days) is “did not die”. In data set [4], the IC50 was greater than 100 µM and the inhibition at 100 µM worked out at 24%. In addition, in data set [3] (setting [6]), the “Number of writhing responses” value was found to be 10. Besides, the “Number of writhing responses” value in data set [3] (setting [7]) is listed as 5. For the same compound, the “Analgesic effect, suppression of the number of writhing responses (in words)” value in data set [3] is “significantly suppresses”. Further, in data set [5], half-maximal inhibition (IC50) required 1 µM and the inhibition at 100 µM was determined as 98%.

As to `Nc1ccc(C(=O)Nc2ccc(C(F)(F)F)cn2)cc1` [Compound 14], in data set [2], the “Gastric ulcer formation (in words)” value is “not observed” and the “Total length of gastric ulcer (mm)” value is listed as 0.01 mm. Further, for the setting “300 mg/kg intraperitoneally, 5 mice, observed for 14 days”, the Death of mice result is “did not die”. Also, in data set [4], the IC50 is greater than 100 µM and the inhibition at 100 µM was 15%. The “Number of writhing responses” value in data set [3] (setting [7]) is reported as 6. Further, the “Analgesic effect, suppression of the number of writhing responses (in words)” value in data set [3] is on record as “significantly suppresses”. In addition, in data set [5], the IC50 came to 30 µM and the inhibition at 100 µM came out at 65%.
